# Measured values: the supplement of paper PMC10307832
# Key:
# Experiment in all cases: relative viability (nuclei count vs DMSO), 5 days (fraction); higher = more cells survive
# FG-4592 + Lapatinib = compound: Cc1nc(C(=O)NCC(=O)O)c(O)c2ccc(Oc3ccccc3)cc12 [FG-4592] + CS(=O)(=O)CCNCc1ccc(-c2ccc3ncnc(Nc4ccc(OCc5cccc(F)c5)c(Cl)c4)c3c2)o1 [Lapatinib] (partner 2 µM)
# How it was run: (§1)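 Lung cancer cell lines in 1536-well plates got either a single drug or a fixed anchor-drug dose together with five library-drug doses (not always all listed) in √10 steps, by pin tool, on the day after seeding. Nuclei were counted after 5 days, and relative viability is the treated-to-vehicle ratio of nuclei counts. Values are medians of duplicate plates.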
# IU1-47 + Phenformin = compound: CC1=CC(=C(N1C2=CC=C(C=C2)Cl)C)C(=O)CN3CCCCC3 [IU1-47] + N=C(N)NC(=N)NCCc1ccccc1 [Phenformin] (partner 250 µM)
# How it was run: as §1
# IU1-47 + Vorinostat = compound: CC1=CC(=C(N1C2=CC=C(C=C2)Cl)C)C(=O)CN3CCCCC3 [IU1-47] + O=C(CCCCCCC(=O)Nc1ccccc1)NO [Vorinostat] (partner 1 µM)
# How it was run: as §1
# FG-4592 + Vorinostat = compound: Cc1nc(C(=O)NCC(=O)O)c(O)c2ccc(Oc3ccccc3)cc12 [FG-4592] + O=C(CCCCCCC(=O)Nc1ccccc1)NO [Vorinostat] (partner 1 µM)
# How it was run: as §1
cell line,measurement,setting,value
NCI-H1975,relative viability,FG-4592 + Lapatinib; first compound 0.08 µM,0.801
same,relative viability,FG-4592 + Lapatinib; first compound 0.253 µM,0.788
same,relative viability,FG-4592 + Lapatinib; first compound 0.8 µM,0.831
same,relative viability,FG-4592 + Lapatinib; first compound 2.53 µM,0.759
same,relative viability,FG-4592 + Lapatinib; first compound 8 µM,0.697
same,relative viability,IU1-47 + Phenformin; first compound 0.08 µM,0.411
same,relative viability,IU1-47 + Phenformin; first compound 0.253 µM,0.411
same,relative viability,IU1-47 + Phenformin; first compound 0.8 µM,0.409
same,relative viability,IU1-47 + Phenformin; first compound 2.53 µM,0.419
same,relative viability,IU1-47 + Phenformin; first compound 8 µM,0.384
same,relative viability,IU1-47 + Vorinostat; first compound 0.08 µM,0.733
same,relative viability,IU1-47 + Vorinostat; first compound 0.253 µM,0.756
same,relative viability,IU1-47 + Vorinostat; first compound 0.8 µM,0.795
same,relative viability,IU1-47 + Vorinostat; first compound 2.53 µM,0.664
same,relative viability,IU1-47 + Vorinostat; first compound 8 µM,0.594
same,relative viability,FG-4592 + Vorinostat; first compound 0.08 µM,0.723
same,relative viability,FG-4592 + Vorinostat; first compound 0.253 µM,0.644
same,relative viability,FG-4592 + Vorinostat; first compound 0.8 µM,0.748
same,relative viability,FG-4592 + Vorinostat; first compound 2.53 µM,0.767
same,relative viability,FG-4592 + Vorinostat; first compound 8 µM,0.653
CAL-12T,relative viability,FG-4592 + Lapatinib; first compound 0.08 µM,0.646
same,relative viability,FG-4592 + Lapatinib; first compound 0.253 µM,0.599
same,relative viability,FG-4592 + Lapatinib; first compound 0.8 µM,0.492
same,relative viability,FG-4592 + Lapatinib; first compound 2.53 µM,0.647
same,relative viability,FG-4592 + Lapatinib; first compound 8 µM,0.667
same,relative viability,IU1-47 + Phenformin; first compound 0.08 µM,0.525
same,relative viability,IU1-47 + Phenformin; first compound 0.253 µM,0.576
same,relative viability,IU1-47 + Phenformin; first compound 0.8 µM,0.613
same,relative viability,IU1-47 + Phenformin; first compound 2.53 µM,0.472
same,relative viability,IU1-47 + Phenformin; first compound 8 µM,0.554
same,relative viability,IU1-47 + Vorinostat; first compound 0.08 µM,0.826
same,relative viability,IU1-47 + Vorinostat; first compound 0.253 µM,0.759
same,relative viability,IU1-47 + Vorinostat; first compound 0.8 µM,0.711
same,relative viability,IU1-47 + Vorinostat; first compound 2.53 µM,0.747
same,relative viability,IU1-47 + Vorinostat; first compound 8 µM,0.841
same,relative viability,FG-4592 + Vorinostat; first compound 0.08 µM,0.624
same,relative viability,FG-4592 + Vorinostat; first compound 0.253 µM,0.583
same,relative viability,FG-4592 + Vorinostat; first compound 0.8 µM,0.651
same,relative viability,FG-4592 + Vorinostat; first compound 2.53 µM,0.585
same,relative viability,FG-4592 + Vorinostat; first compound 8 µM,0.496
NCI-H1623,relative viability,IU1-47 + Phenformin; first compound 0.08 µM,0.634
same,relative viability,IU1-47 + Phenformin; first compound 0.253 µM,0.61
same,relative viability,IU1-47 + Phenformin; first compound 0.8 µM,0.642
same,relative viability,IU1-47 + Phenformin; first compound 2.53 µM,0.576
same,relative viability,IU1-47 + Phenformin; first compound 8 µM,0.551
HCC-44,relative viability,FG-4592 + Lapatinib; first compound 0.08 µM,0.99
same,relative viability,FG-4592 + Lapatinib; first compound 0.253 µM,0.948
same,relative viability,FG-4592 + Lapatinib; first compound 0.8 µM,0.835
same,relative viability,FG-4592 + Lapatinib; first compound 2.53 µM,0.96
same,relative viability,FG-4592 + Lapatinib; first compound 8 µM,0.96
same,relative viability,IU1-47 + Phenformin; first compound 0.08 µM,0.167
same,relative viability,IU1-47 + Phenformin; first compound 0.253 µM,0.183
same,relative viability,IU1-47 + Phenformin; first compound 0.8 µM,0.143
same,relative viability,IU1-47 + Phenformin; first compound 2.53 µM,0.221
same,relative viability,IU1-47 + Phenformin; first compound 8 µM,0.183
same,relative viability,IU1-47 + Vorinostat; first compound 0.08 µM,1.16
same,relative viability,IU1-47 + Vorinostat; first compound 0.253 µM,1.09
same,relative viability,IU1-47 + Vorinostat; first compound 0.8 µM,1.11
same,relative viability,IU1-47 + Vorinostat; first compound 2.53 µM,1.13
same,relative viability,IU1-47 + Vorinostat; first compound 8 µM,1.09
same,relative viability,FG-4592 + Vorinostat; first compound 0.08 µM,1.03
same,relative viability,FG-4592 + Vorinostat; first compound 0.253 µM,1.05
same,relative viability,FG-4592 + Vorinostat; first compound 0.8 µM,1.2
same,relative viability,FG-4592 + Vorinostat; first compound 2.53 µM,1.16
same,relative viability,FG-4592 + Vorinostat; first compound 8 µM,1.11
EKVX,relative viability,FG-4592 + Lapatinib; first compound 0.08 µM,0.226
same,relative viability,FG-4592 + Lapatinib; first compound 0.253 µM,0.213
same,relative viability,FG-4592 + Lapatinib; first compound 0.8 µM,0.195
same,relative viability,FG-4592 + Lapatinib; first compound 2.53 µM,0.278
same,relative viability,FG-4592 + Lapatinib; first compound 8 µM,0.375
same,relative viability,IU1-47 + Phenformin; first compound 0.08 µM,0.24
same,relative viability,IU1-47 + Phenformin; first compound 0.253 µM,0.262
same,relative viability,IU1-47 + Phenformin; first compound 0.8 µM,0.263
same,relative viability,IU1-47 + Phenformin; first compound 2.53 µM,0.259
same,relative viability,IU1-47 + Phenformin; first compound 8 µM,0.252
same,relative viability,IU1-47 + Vorinostat; first compound 0.08 µM,0.951
same,relative viability,IU1-47 + Vorinostat; first compound 0.253 µM,0.632
same,relative viability,IU1-47 + Vorinostat; first compound 0.8 µM,0.846
same,relative viability,IU1-47 + Vorinostat; first compound 2.53 µM,0.573
same,relative viability,IU1-47 + Vorinostat; first compound 8 µM,0.631
same,relative viability,FG-4592 + Vorinostat; first compound 0.08 µM,0.869
same,relative viability,FG-4592 + Vorinostat; first compound 0.253 µM,0.619
same,relative viability,FG-4592 + Vorinostat; first compound 0.8 µM,0.64
same,relative viability,FG-4592 + Vorinostat; first compound 2.53 µM,0.706
same,relative viability,FG-4592 + Vorinostat; first compound 8 µM,0.784
NCI-H1651,relative viability,FG-4592 + Lapatinib; first compound 0.08 µM,0.744
same,relative viability,FG-4592 + Lapatinib; first compound 0.253 µM,0.883
same,relative viability,FG-4592 + Lapatinib; first compound 0.8 µM,0.741
same,relative viability,FG-4592 + Lapatinib; first compound 2.53 µM,0.826
same,relative viability,FG-4592 + Lapatinib; first compound 8 µM,0.706
same,relative viability,IU1-47 + Phenformin; first compound 0.08 µM,0.342
same,relative viability,IU1-47 + Phenformin; first compound 0.253 µM,0.308
same,relative viability,IU1-47 + Phenformin; first compound 0.8 µM,0.373
same,relative viability,IU1-47 + Phenformin; first compound 2.53 µM,0.319
same,relative viability,IU1-47 + Phenformin; first compound 8 µM,0.297
same,relative viability,IU1-47 + Vorinostat; first compound 0.08 µM,0.559
same,relative viability,IU1-47 + Vorinostat; first compound 0.253 µM,0.558
same,relative viability,IU1-47 + Vorinostat; first compound 0.8 µM,0.556
same,relative viability,IU1-47 + Vorinostat; first compound 2.53 µM,0.531
same,relative viability,IU1-47 + Vorinostat; first compound 8 µM,0.495
same,relative viability,FG-4592 + Vorinostat; first compound 0.08 µM,0.597
same,relative viability,FG-4592 + Vorinostat; first compound 0.253 µM,0.596
same,relative viability,FG-4592 + Vorinostat; first compound 0.8 µM,0.546
same,relative viability,FG-4592 + Vorinostat; first compound 2.53 µM,0.469
same,relative viability,FG-4592 + Vorinostat; first compound 8 µM,0.538
NCI-H1944,relative viability,FG-4592 + Lapatinib; first compound 0.08 µM,0.712
same,relative viability,FG-4592 + Lapatinib; first compound 0.253 µM,0.759
same,relative viability,FG-4592 + Lapatinib; first compound 0.8 µM,0.576
same,relative viability,FG-4592 + Lapatinib; first compound 2.53 µM,0.71
same,relative viability,FG-4592 + Lapatinib; first compound 8 µM,0.768
same,relative viability,IU1-47 + Phenformin; first compound 0.08 µM,0.2
same,relative viability,IU1-47 + Phenformin; first compound 0.253 µM,0.192
same,relative viability,IU1-47 + Phenformin; first compound 0.8 µM,0.199
same,relative viability,IU1-47 + Phenformin; first compound 2.53 µM,0.216
same,relative viability,IU1-47 + Phenformin; first compound 8 µM,0.168
same,relative viability,IU1-47 + Vorinostat; first compound 0.08 µM,0.567
same,relative viability,IU1-47 + Vorinostat; first compound 0.253 µM,0.59
same,relative viability,IU1-47 + Vorinostat; first compound 0.8 µM,0.593
same,relative viability,IU1-47 + Vorinostat; first compound 2.53 µM,0.5
same,relative viability,IU1-47 + Vorinostat; first compound 8 µM,0.524
same,relative viability,FG-4592 + Vorinostat; first compound 0.08 µM,0.479
same,relative viability,FG-4592 + Vorinostat; first compound 0.253 µM,0.571
same,relative viability,FG-4592 + Vorinostat; first compound 0.8 µM,0.461
same,relative viability,FG-4592 + Vorinostat; first compound 2.53 µM,0.512
same,relative viability,FG-4592 + Vorinostat; first compound 8 µM,0.561
NCI-H1703,relative viability,FG-4592 + Lapatinib; first compound 0.08 µM,1.11
same,relative viability,FG-4592 + Lapatinib; first compound 0.253 µM,0.881
same,relative viability,FG-4592 + Lapatinib; first compound 0.8 µM,1.11
same,relative viability,FG-4592 + Lapatinib; first compound 2.53 µM,0.966
same,relative viability,FG-4592 + Lapatinib; first compound 8 µM,0.936
Calu-6,relative viability,FG-4592 + Lapatinib; first compound 0.08 µM,1.01
same,relative viability,FG-4592 + Lapatinib; first compound 0.253 µM,1
same,relative viability,FG-4592 + Lapatinib; first compound 0.8 µM,1.12
same,relative viability,FG-4592 + Lapatinib; first compound 2.53 µM,1.08
same,relative viability,FG-4592 + Lapatinib; first compound 8 µM,1.07
EBC-1,relative viability,FG-4592 + Lapatinib; first compound 0.08 µM,0.24
same,relative viability,FG-4592 + Lapatinib; first compound 0.253 µM,0.25
same,relative viability,FG-4592 + Lapatinib; first compound 0.8 µM,0.206
same,relative viability,FG-4592 + Lapatinib; first compound 2.53 µM,0.201
same,relative viability,FG-4592 + Lapatinib; first compound 8 µM,0.232
SW 1573,relative viability,FG-4592 + Lapatinib; first compound 0.08 µM,1.05
same,relative viability,FG-4592 + Lapatinib; first compound 0.253 µM,1.12
same,relative viability,FG-4592 + Lapatinib; first compound 0.8 µM,1.11
same,relative viability,FG-4592 + Lapatinib; first compound 2.53 µM,1.11
same,relative viability,FG-4592 + Lapatinib; first compound 8 µM,1.22
same,relative viability,IU1-47 + Phenformin; first compound 0.08 µM,0.394
same,relative viability,IU1-47 + Phenformin; first compound 0.253 µM,0.353
same,relative viability,IU1-47 + Phenformin; first compound 0.8 µM,0.367
same,relative viability,IU1-47 + Phenformin; first compound 2.53 µM,0.421
same,relative viability,IU1-47 + Phenformin; first compound 8 µM,0.382
same,relative viability,IU1-47 + Vorinostat; first compound 0.08 µM,0.736
same,relative viability,IU1-47 + Vorinostat; first compound 0.253 µM,0.732
same,relative viability,IU1-47 + Vorinostat; first compound 0.8 µM,0.779
same,relative viability,IU1-47 + Vorinostat; first compound 2.53 µM,0.454
same,relative viability,IU1-47 + Vorinostat; first compound 8 µM,0.792
same,relative viability,FG-4592 + Vorinostat; first compound 0.08 µM,0.708
same,relative viability,FG-4592 + Vorinostat; first compound 0.253 µM,0.965
same,relative viability,FG-4592 + Vorinostat; first compound 0.8 µM,0.604
same,relative viability,FG-4592 + Vorinostat; first compound 2.53 µM,0.543
same,relative viability,FG-4592 + Vorinostat; first compound 8 µM,0.494
